Laboratory results published in article PMC11767423, “Design, Synthesis, and Antioxidant and Anti-Tyrosinase Activities of (Z)-5-Benzylidene-2-(naphthalen-1-ylamino)thiazol-4(5H)-one Analogs: In Vitro and In Vivo Insights” (Molecules, 2025).

Experiments:
B16F10 cells [1] = assay: Melanin content assay in B16F10 cells; assay type: cell-based; settings: 20 μM; α-MSH + IBMX; 72 h; stimulators alone 3.9-fold
Protocol: After 72 h, the effect of compound 10 on melanin biosynthesis was determined. A 6-well microplate containing 5 × 10^3 B16F10 cells per well was incubated at 37 °C for 24 h. Compound 10 was added to each well at 5, 10, and 20 μM and incubated for 1 h, and then stimulators (1 μM α-MSH and 200 μM IBMX) were added to each well before 72 h incubation. […] For the melanin content quantification, the cells were lysed at 60 °C for 1 h in 100 μL 1N-NaOH solution containing 10% DMSO after washing 2 times with phosphate-buffered saline (PBS). The cell lysates were transferred to a 96-well microplate and the optical density was measured at 405 nm using an ELISA reader to calculate the melanin content in each well.

zebrafish larvae = assay: Zebrafish depigmentation assay using zebrafish embryos; assay type: in vivo, Danio rerio; parameters: pigmentation of zebrafish larvae: dose or concentration left out as unconfirmed; settings: treated at 28 hpf, read at 76 hpf
Protocol: Zebrafish embryos were used to determine whether the synthesized compounds could inhibit melanin synthesis in vivo. […] The degree of depigmentation in zebrafish larvae was confirmed by photography 48 h later (Figure 8A). The density of the zebrafish larvae was measured using a CS analyzer 3.2 (Atto, Tokyo, Japan). […] To obtain zebrafish (wild type, Danio rerio) eggs for the experiment, six male and nine female zebrafish were raised separately in oxygen-connected tanks. Dried brine shrimp (Artemia salina, San Francisco Bay Brand, San Francisco, CA, USA) were fed as food three times per day. They were raised at 28 °C with 10 h of light blocking and 14 h of light exposure. The evening before obtaining zebrafish eggs, three females and two males were placed together in three zebrafish mating cages, and the light was blocked. The following morning, mating was induced by exposure to light. Harvested zebrafish eggs, obtained free of charge from the Zebrafish Center for Disease Modeling (Chungnam National University, Daejeon, Republic of Korea), were kept in an E3 embryonic solution containing methylene blue (MB) until the dechorionation process was performed. […] The pigmented areas in the zebrafish larval photographs were determined using an ATTO CS analyzer 3.2 (Tokyo, Japan).

B16F10 cells [2] = assay: In situ cellular tyrosinase activity assay (L-DOPA staining); assay type: cell-based; settings: 20 μM; α-MSH + IBMX; 72 h, then L-DOPA 2 h
Protocol: The effect of 10 on cellular tyrosinase activity was investigated in situ using L-DOPA and B16F10 cells. This experimental method allows for the direct observation of cellular melanin production. […] After 72 h of incubation, the cells were treated with L-DOPA for 2 h to induce melanin production.
A 24-well plate containing 1 × 10^3 B16F10 cells per well was incubated at 37 °C for 24 h. […] After incubation for 72 h, the cells were fixed for 50 min using paraformaldehyde (4%), rinsed twice with PBS, and permeabilized for 2 min using Triton X-100 (0.1%). The cells were washed with PBS and 500 μL of 2 mM L-DOPA solution was added. After the cells were incubated at 37 °C for 2 h, stained images were obtained using a camera connected to a microscope (Motic, Hong Kong, China).

[3] = test system: tyrosinase activity of zebrafish larvae; assay: Tyrosinase activity in zebrafish larvae; assay type: in vivo, Danio rerio; settings: 20 mM; 76 hpf
Protocol: To quantify the tyrosinase activity in zebrafish larvae, 60 zebrafish larvae at 76 hpf were divided into three Eppendorf tubes and centrifuged at 10,000× g for 10 min at 4 °C. After removing the supernatant, the residue was lysed using radioimmunoprecipitation assay buffer (100 μL) (Biosedang, Gyeonggi-do, Republic of Korea) and homogenized for 5 min using a sonicator. The lysate was centrifuged at 10,000× g for 10 min at 4 °C. The supernatants were transferred to a new Eppendorf tube and the protein content was quantified using a bicinchoninic acid protein assay kit (Thermo Fisher Scientific, Waltham, MA, USA). An aliquot (100 μL) of 1 mM L-DOPA was added to the new Eppendorf tube containing a total of 300 μg of protein in 100 μL of protein lysate. Eppendorf tubes were incubated for 1 h at 37 °C and then transferred to each well of a 96-well plate. The absorbance of each well was measured at 475 nm to determine the tyrosinase activity of zebrafish larvae.

[4] = test system: B16F10 cellular tyrosinase; assay: Cellular tyrosinase activity assay in B16F10 cells; assay type: cell-based; settings: 20 μM; α-MSH + IBMX; 72 h; stimulators alone 3.9-fold vs untreated control
Protocol: We analyzed the effect of 10 on B16F10 cellular tyrosinase activity to determine whether the ability of 10 inhibiting melanogenesis results from its ability to inhibit cellular tyrosinase activity.
A 6-well microplate containing 5 × 10^3 B16F10 cells per well was incubated at 37 °C for 24 h. Compound 10 was added to each well at 5, 10, and 20 μM and incubated for 1 h, and then stimulators (1 μM α-MSH and 200 μM IBMX) were added to each well before 72 h incubation.
To measure the cellular tyrosinase activity, the cells incubated for 72 h were washed 2 times with PBS, exposed to a 100 μL lysis buffer solution containing 5 μL 2 mM phenylmethylsulfonyl fluoride, 5 μL 20% Triton X-100, and 90 μL 50 mM phosphate buffer (pH 6.5), and cultivated for 30 min at −80 °C. After the lysates were centrifuged at 4 °C for 10 min at 10,000× g, an aliquot (80 μL) of the supernatants was added to each well of a 96-well microplate containing 20 μL of 10 mM L-DOPA. Data for the optical density at 475 nm were obtained every 1 min for 10 min at 37 °C using an ELISA reader to determine cellular tyrosinase activity.

[5] = Assay for ABTS+ radical scavenging; settings: 100 μM
Protocol: The ABTS^+-scavenging efficacy of compounds 1–15 was determined by oxidizing ABTS with K2S2O8 to prepare ABTS^+. The prepared ABTS^+ solution was mixed with the test samples (1–15 and Trolox, a positive control) and the radical-scavenging efficacy of the test samples was explored by measuring the decrease in optical density at 732 nm. All test samples were tested at 100 μM.
To acquire ABTS^+ radicals, ABTS (14 mM in 20 mL H2O) was mixed with K2S2O8 (4.9 mM in 20 mL H2O), an oxidant agent, and stored at 22 °C in a place without light for 15 h. The absorbance of the prepared ABTS^+ radical solution was adjusted to 0.70 ± 0.01 at 732 nm by adding methanol. Test samples (Trolox [positive control] and 1–15) were dissolved in a co-solvent (DMSO:EtOH = 1:10 [v/v]). The diluted ABTS^+ radical solution (90 μL) was added to the test sample solution (10 μL) in each well of a 96-well plate and held at 22 °C in the dark for 2 min. The optical density of each well was recorded at 732 nm every 1 min for 10 min using an ELISA reader. The final concentration of test samples was 100 μM. %Radical-scavenging activity was determined using the formula 100 × [(Abscon − Abssam)/Abscon], where Abscon and Abssam represent the optical densities of the control and the samples, respectively.

[6] = Assay for DPPH radical scavenging; settings: 500 μM; 30 min in the dark
Protocol: To evaluate the DPPH radical-scavenging efficacy of 1–15, a DPPH methanol solution was mixed with compounds 1–15, and the mixture was left in the dark. After 30 min, the radical-scavenging efficacy of each compound was determined by measuring the optical density at 517 nm. Vitamin C (L-ascorbic acid) was used for comparing radical-scavenging activity, and all test samples were treated at 500 μM.
DPPH was dissolved in methanol to prepare a 0.2 mM solution, and test samples (vitamin C [L-ascorbic acid, LA; positive control] and 1–15) were dissolved in DMSO to prepare a 5 mM solution. The DPPH methanolic solution (180 μL) was added to the test sample DMSO solution (20 μL) in each well of a 96-well microplate and kept in a place without light for 30 min at 22 °C. Using a VersaMax™ ELISA reader, the optical density of each well was recorded at 517 nm to determine DPPH radical-scavenging activity.

[7] = Assay for ROS scavenging (SIN-1/DCFH); settings: 40 μM sample; 10 μM SIN-1
Protocol: To assess the ability of compounds 1–15 to scavenge ROS, 2′,7′-dichlorodihydrofluorescein (DCFH) solution, which was obtained from hydrolysis of DCFH diacetate by esterase, was mixed with 3-morpholinosydnonimine (SIN-1), a ROS generator, and test samples (1–15 and Trolox, a positive material). ROS produces 2′,7′-dichlorofluorescein (DCF), a fluorescent material, by oxidizing DCFH. The ROS-scavenging activity of the samples was determined by measuring the fluorescence of DCF. The results were obtained at 10 μM SIN-1 and 40 μM sample.
To obtain 2′,7′-dichlorodihydrofluorescein (DCFH) solution, esterase (3 units/2 mL) was mixed with 2.5 mM DCFH diacetate and 50 mM phosphate buffer (pH 7.4). After incubating the mixture at 22 °C for 25 min, it was kept in the dark. 3-Morpholinosydnonimine (SIN-1) and compounds 1–15 were dissolved in phosphate buffer and DMSO, respectively. SIN-1 (10 µL) and compound (10 µL) were added to each well of a 96-well black plate containing phosphate buffer (180 µL), and the concentrations of SIN-1 and compound were 10 and 40 μM, respectively. Trolox (40 μM) was used as a positive material. […] To measure the fluorescence of 2′,7′-dichlorofluorescein at 535 nm, a microplate reader (Berthold Advances GmbH &Co., Bad Wildbad, Germany) was utilized with an excitation wavelength of 485 nm. […]

With `O=c1cc(CO)occ1O` [Kojic acid, reference compound] the stimulator-induced melanin content (B16F10 cells [1]) was 3.4 fold, the “pigmentation of zebrafish larvae” value (zebrafish larvae) was “pigmentation of zebrafish larvae was reduced” and the “in situ melanin formation (L-DOPA staining)” value (B16F10 cells [2]) was “melanin production was suppressed compared with that in the group treated with only stimulators”. The “tyrosinase activity of zebrafish larvae” value [3] was “significantly reduced tyrosinase activity” and the cellular tyrosinase activity [4] was 3.3 fold.
With `O=C1N=C(Nc2cccc3ccccc23)S/C1=C\c1ccc(O)c(O)c1` [Compound 8, (Z)-5-(3,4-Dihydroxybenzylidene)-2-(naphthalen-1-ylamino)thiazol-4(5H)-one] the “ABTS+ scavenging” value [5] was 99%, the DPPH radical scavenging [6] was 77% and the ROS-scavenging activity [7] was “very strong ROS-scavenging capacity, which was more potent than that of Trolox”.
In the case of `Cc1c(C)c2c(c(C)c1O)CCC(C)(C(=O)O)O2` (stereo not shown) [Trolox, reference compound], the “ABTS+ scavenging” value [5] is reported as 99% and the ROS-scavenging activity [7] is reported as “strong ROS-scavenging activity”.
